Organism: Rattus norvegicus
Assay: Open TG-GATES - Regimen: Single
Format: toxicity, organism-based, Sprague-Dawley
Parameters: regimen Single, gender Male, age 6 weeks
Conditions: in vivo, po, 1000 mg/kg, route gavage, dose level High; for APTT / Bas / Eos / Fbg / Hb / Ht / Lym / MCH / MCHC / MCV / Mono / Neu / PT / Plat / RBC / Ret / WBC: tissue Blood; for KIDNEY_L / KIDNEY_R / KIDNEY_TOTAL: tissue Kidney; for LIVER: tissue Liver; for A/G / ALP / ALT / AST / BUN / CRE / Ca / Cl / DBIL / GLC / IP / K / LDH / Na / PL / RALB / TBIL / TC / TG / TP / gamma-GTP: tissue Plasma

**Q.** How did the TERMINAL_BW (3 h) turn out when `CCc1cc(C(N)=S)ccn1` [ETHIONAMIDE] was run?
**A.** The TERMINAL_BW was 227.9 g.

**Q.** What about the APTT (3 h) of the same molecule?
**A.** Its APTT is 17.7 s.

**Q.** And the Bas (3 h)?
**A.** The Bas was 0%.

**Q.** And the Eos (3 h)?
**A.** The Eos was 1%.

**Q.** What about the Fbg (3 h) of the same molecule?
**A.** The Fbg was 212.6 mg/dL.

**Q.** And the Hb (3 h)?
**A.** The Hb was 13.7 g/dL.

**Q.** And the Ht (3 h)?
**A.** The Ht was 40.6%.

**Q.** What about the Lym (3 h) of the same molecule?
**A.** Its Lym is 70.8%.

**Q.** And the MCH (3 h)?
**A.** Its MCH is 21.4 pg.

**Q.** What about the MCHC (3 h) of the same molecule?
**A.** Its MCHC is 33.8%.

**Q.** And the MCV (3 h)?
**A.** The MCV was 63.5 fL.

**Q.** And the Mono (3 h)?
**A.** The Mono was 8.4%.

**Q.** And the Neu (3 h)?
**A.** Its Neu is 19.8%.

**Q.** What about the PT (3 h) of the same molecule?
**A.** Its PT is 12.4 s.

**Q.** What about the Plat (3 h) of the same molecule?
**A.** The Plat was 112.8 x10_4/uL.

**Q.** And the RBC (3 h)?
**A.** Its RBC is 640 x10_4/ul.

**Q.** And the Ret (3 h)?
**A.** The Ret was 7.9%.

**Q.** What about the WBC (3 h) of the same molecule?
**A.** The WBC was 62.9 x10_2/uL.

**Q.** What about the KIDNEY_L (3 h) of the same molecule?
**A.** The KIDNEY_L was 1 g.

**Q.** And the KIDNEY_R (3 h)?
**A.** Its KIDNEY_R is 1 g.

**Q.** And the KIDNEY_TOTAL (3 h)?
**A.** The KIDNEY_TOTAL was 2 g.

**Q.** And the LIVER (3 h)?
**A.** The LIVER was 11.1 g.

**Q.** And the A/G (3 h)?
**A.** The A/G was 1.9.

**Q.** And the ALP (3 h)?
**A.** The ALP was 715 IU/L.

**Q.** And the ALT (3 h)?
**A.** Its ALT is 33.6 IU/L.

**Q.** What about the AST (3 h) of the same molecule?
**A.** The AST was 69 IU/L.

**Q.** And the BUN (3 h)?
**A.** Its BUN is 13.4 mg/dL.

**Q.** And the CRE (3 h)?
**A.** The CRE was 0.5 mg/dL.

**Q.** What about the Ca (3 h) of the same molecule?
**A.** The Ca was 11 mg/dL.

**Q.** And the Cl (3 h)?
**A.** The Cl was 100 meq/L.

**Q.** And the DBIL (3 h)?
**A.** Its DBIL is 0.014 mg/dL.

**Q.** And the GLC (3 h)?
**A.** The GLC was 202.8 mg/dL.

**Q.** What about the IP (3 h) of the same molecule?
**A.** The IP was 9.1 mg/dL.

**Q.** What about the K (3 h) of the same molecule?
**A.** The K was 4 meq/L.

**Q.** What about the LDH (3 h) of the same molecule?
**A.** Its LDH is 106.4 IU/L.

**Q.** What about the Na (3 h) of the same molecule?
**A.** The Na was 139.2 meq/L.

**Q.** And the PL (3 h)?
**A.** Its PL is 130.4 mg/dL.

**Q.** What about the RALB (3 h) of the same molecule?
**A.** The RALB was 3.7 g/dL.

**Q.** What about the TBIL (3 h) of the same molecule?
**A.** The TBIL was 0.4 mg/dL.

**Q.** What about the TC (3 h) of the same molecule?
**A.** Its TC is 78.6 mg/dL.

**Q.** What about the TG (3 h) of the same molecule?
**A.** Its TG is 46 mg/dL.

**Q.** What about the TP (3 h) of the same molecule?
**A.** The TP was 5.7 g/dL.

**Q.** What about the gamma-GTP (3 h) of the same molecule?
**A.** Its gamma-GTP is 1.2 IU/L.

**Q.** What about the TERMINAL_BW (6 h) of the same molecule?
**A.** Its TERMINAL_BW is 227.1 g.

**Q.** What about the APTT (6 h) of the same molecule?
**A.** Its APTT is 18.3 s.

**Q.** What about the Bas (6 h) of the same molecule?
**A.** Its Bas is 0%.

**Q.** What about the Eos (6 h) of the same molecule?
**A.** Its Eos is 0.8%.

**Q.** And the Fbg (6 h)?
**A.** The Fbg was 209.2 mg/dL.

**Q.** And the Hb (6 h)?
**A.** Its Hb is 14.4 g/dL.

**Q.** What about the Ht (6 h) of the same molecule?
**A.** Its Ht is 43.1%.

**Q.** What about the Lym (6 h) of the same molecule?
**A.** Its Lym is 75.6%.

**Q.** What about the MCH (6 h) of the same molecule?
**A.** The MCH was 21.9 pg.

**Q.** And the MCHC (6 h)?
**A.** The MCHC was 33.5%.

**Q.** What about the MCV (6 h) of the same molecule?
**A.** Its MCV is 65.3 fL.

**Q.** And the Mono (6 h)?
**A.** The Mono was 7.6%.

**Q.** And the Neu (6 h)?
**A.** The Neu was 16%.

**Q.** And the PT (6 h)?
**A.** The PT was 13.8 s.

**Q.** What about the Plat (6 h) of the same molecule?
**A.** The Plat was 118.7 x10_4/uL.

**Q.** What about the RBC (6 h) of the same molecule?
**A.** The RBC was 659.2 x10_4/ul.

**Q.** What about the Ret (6 h) of the same molecule?
**A.** The Ret was 7.9%.

**Q.** What about the WBC (6 h) of the same molecule?
**A.** The WBC was 98.1 x10_2/uL.

**Q.** What about the KIDNEY_L (6 h) of the same molecule?
**A.** The KIDNEY_L was 1 g.

**Q.** What about the KIDNEY_R (6 h) of the same molecule?
**A.** Its KIDNEY_R is 1 g.

**Q.** And the KIDNEY_TOTAL (6 h)?
**A.** The KIDNEY_TOTAL was 2 g.

**Q.** What about the LIVER (6 h) of the same molecule?
**A.** The LIVER was 10.4 g.

**Q.** And the A/G (6 h)?
**A.** The A/G was 1.8.

**Q.** And the ALP (6 h)?
**A.** The ALP was 679 IU/L.

**Q.** What about the ALT (6 h) of the same molecule?
**A.** Its ALT is 33.8 IU/L.

**Q.** What about the AST (6 h) of the same molecule?
**A.** The AST was 74.8 IU/L.

**Q.** What about the BUN (6 h) of the same molecule?
**A.** Its BUN is 16 mg/dL.

**Q.** What about the CRE (6 h) of the same molecule?
**A.** The CRE was 0.5 mg/dL.

**Q.** And the Ca (6 h)?
**A.** Its Ca is 10.9 mg/dL.

**Q.** What about the Cl (6 h) of the same molecule?
**A.** The Cl was 102.8 meq/L.

**Q.** What about the DBIL (6 h) of the same molecule?
**A.** The DBIL was 0.004 mg/dL.

**Q.** And the GLC (6 h)?
**A.** The GLC was 192.4 mg/dL.

**Q.** And the IP (6 h)?
**A.** The IP was 9.4 mg/dL.

**Q.** And the K (6 h)?
**A.** The K was 4 meq/L.

**Q.** And the LDH (6 h)?
**A.** The LDH was 119.2 IU/L.

**Q.** What about the Na (6 h) of the same molecule?
**A.** Its Na is 139.2 meq/L.

**Q.** What about the PL (6 h) of the same molecule?
**A.** Its PL is 111.8 mg/dL.

**Q.** And the RALB (6 h)?
**A.** Its RALB is 3.6 g/dL.

**Q.** What about the TBIL (6 h) of the same molecule?
**A.** The TBIL was 0.5 mg/dL.

**Q.** And the TC (6 h)?
**A.** The TC was 62.4 mg/dL.

**Q.** And the TG (6 h)?
**A.** The TG was 17.8 mg/dL.

**Q.** And the TP (6 h)?
**A.** Its TP is 5.6 g/dL.

**Q.** What about the gamma-GTP (6 h) of the same molecule?
**A.** The gamma-GTP was 1.2 IU/L.

Reference: ChEMBL document CHEMBL3885861, “Open TG-GATES”
